These results are taken from patent US7368567B2, “Arylsulfonyl benzodioxanes, benzoxazines and benzothiazines as 5-HT6 antagonists” (Roche Palo Alto LLC, priority 2004, dated 2008).

The melting point is the temperature, or range, at which the solid turns liquid. With `CNCC1COc2ccc(S(=O)(=O)c3ccccc3)cc2O1` (racemic) [Compound 1, (+−)-(7-Benzenesulfonyl-2,3-dihydro-benzo[1,4]dioxin-2-ylmethyl)-methyl-amine], the melting point lay in the range of 198 to 199.4 °C. The same measure for `O=S(=O)(c1cccc(F)c1)c1ccc2c(c1)O[C@H](CN1CC1)CO2` (stereo in doubt): 215.4 to 217.2 °C; for `O=S(=O)(c1ccccc1)c1ccc2c(c1)O[C@@H](CN1CC1)CO2` (stereo in doubt): 203.9 to 206.6 °C; for `O=S(=O)(c1cccc(F)c1)c1ccc2c(c1)O[C@@H](CNCc1ccccc1)CO2` (stereo in doubt) [Compound 11, Benzyl-[7-(3-fluoro-benzenesulfonyl)-2,3-dihydro-benzo[1,4]dioxin-2-ylmethyl]-amine]: 195.1 to 197.1 °C. The compound `CNC[C@H]1COc2ccc(S(=O)(=O)c3ccc(C)cc3)cc2O1` (stereo in doubt) [Compound 12, Methyl-[7-(toluene-4-sulfonyl)-2,3-dihydro-benzo[1,4]dioxin-2-ylmethyl]-amine] yielded a melting point of 213 to 214.1 °C. Regarding `CCNC[C@@H]1COc2ccc(S(=O)(=O)c3cccc(F)c3)cc2O1` (stereo in doubt) [Compound 13, Ethyl-[7-(3-fluoro-benzenesulfonyl)-2,3-dihydro-benzo[1,4]dioxin-2-ylmethyl]-amine], the melting point fell in the range of 247.5 to 251.3 °C. The value for `CN(C)C[C@@H]1COc2ccc(S(=O)(=O)c3cccc(F)c3)cc2O1` (stereo in doubt) [Compound 14, [7-(3-Fluoro-benzenesulfonyl)-2,3-dihydro-benzo[1,4]dioxin-2-ylmethyl]-dimethyl-amine] was 228.7 to 231.3 °C. With `CC(C)NC[C@@H]1COc2ccc(S(=O)(=O)c3cccc(F)c3)cc2O1` (stereo in doubt) [Compound 15, [7-(3-Fluoro-benzenesulfonyl)-2,3-dihydro-benzo[1,4]dioxin-2-ylmethyl]-isopropyl-amine], the melting point was in the range of 242.4 to 243.8 °C.

On to `O=S(=O)(c1cccc(F)c1)c1ccc2c(c1)O[C@H](CN1CCC1)CO2` (stereo in doubt) [Compound 16, 1-[7-(3-Fluoro-benzenesulfonyl)-2,3-dihydro-benzo[1,4]dioxin-2-ylmethyl]-azetidine], for which the melting point was in the range of 100.8 to 108.3 °C. `COCCNC[C@@H]1COc2ccc(S(=O)(=O)c3cccc(F)c3)cc2O1` (stereo in doubt) [Compound 17, [7-(3-Fluoro-benzenesulfonyl)-2,3-dihydro-benzo[1,4]dioxin-2-ylmethyl]-(2-methoxy-ethyl)-amine]: the melting point fell in the range of 193 to 196.9 °C. The same measure for `O=S(=O)(c1ccccc1)c1ccc2c(c1)O[C@@H](CNCc1ccccc1)CO2` (stereo in doubt) [Compound 21, (7-Benzenesulfonyl-2,3-dihydro-benzo[1,4]dioxin-2-ylmethyl)-benzyl-amine]: 220.9 to 224.9 °C.

For the compound `CN(C)C[C@H]1COc2ccc(S(=O)(=O)c3ccccc3)cc2O1` (stereo in doubt) [Compound 23, (7-Benzenesulfonyl-2,3-dihydro-benzo[1,4]dioxin-2-ylmethyl)-dimethyl-amine], the melting point lay in the range of 232 to 233.5 °C.

As to `CC(C)NC[C@H]1COc2ccc(S(=O)(=O)c3ccccc3)cc2O1` (stereo in doubt) [Compound 24, (7-Benzenesulfonyl-2,3-dihydro-benzo[1,4]dioxin-2-ylmethyl)-isopropyl-amine], the melting point is 224.9 to 228.8 °C. In turn, `COCCNC[C@H]1COc2ccc(S(=O)(=O)c3ccccc3)cc2O1` (stereo in doubt) [Compound 26, (7-Benzenesulfonyl-2,3-dihydro-benzo[1,4]dioxin-2-ylmethyl)-(2-methoxy-ethyl)-amine] yielded a melting point of 169.3 to 171.9 °C. The same measure for `CCNC[C@H]1COc2ccc(S(=O)(=O)c3ccccc3)cc2O1` (stereo in doubt) [Compound 27, (7-Benzenesulfonyl-2,3-dihydro-benzo[1,4]dioxin-2-ylmethyl)-ethyl-amine]: 242.2 to 246.7 °C.

Compound `CNC[C@@H]1COc2ccc(S(=O)(=O)c3cccc(C)c3)cc2O1` (stereo in doubt) [Compound 28, Methyl-[7-(toluene-3-sulfonyl)-2,3-dihydro-benzo[1,4]dioxin-2-ylmethyl]-amine] displayed a melting point of 99.9 to 106.1 °C. The value for `CNC[C@@H]1COc2ccc(S(=O)(=O)c3ccccc3C)cc2O1` (stereo in doubt) [Compound 29, Methyl-[7-(toluene-2-sulfonyl)-2,3-dihydro-benzo[1,4]dioxin-2-ylmethyl]-amine] was 169 to 170.8 °C. The value for `O=S(=O)(c1ccccc1)c1ccc2c(c1)O[C@@H](CN1CCNCC1)CO2` (stereo in doubt) [Compound 30, 1-(7-Benzenesulfonyl-2,3-dihydro-benzo[1,4]dioxin-2-ylmethyl)-piperazine] was 279.2 to 279.4 °C; that for `N=C(N)NC[C@H]1COc2ccc(S(=O)(=O)c3ccccc3)cc2O1` (stereo in doubt) [Compound 31, N-(7-Benzenesulfonyl-2,3-dihydro-benzo[1,4]dioxin-2-ylmethyl)-guanidine] was 126.5 to 128.3 °C; that for `CN(O)C[C@H]1COc2ccc(S(=O)(=O)c3ccccc3)cc2O1` (stereo in doubt) [Compound 33, N-(7-Benzenesulfonyl-2,3-dihydro-benzo[1,4]dioxin-2-ylmethyl)-N-methylhydroxylamine] was 199.2 to 200.8 °C. Regarding `O=S(=O)(c1ccccc1)c1ccc2c(c1)O[C@@H](Cn1ccnc1)CO2` (stereo in doubt) [Compound 34, 1-(7-Benzenesulfonyl-2,3-dihydro-benzo[1,4]dioxin-2-ylmethyl)-1H-imidazole], the melting point lay in the range of 88 to 90 °C.

Turning to `O=S(=O)(c1ccccc1)c1ccc2c(c1)O[C@@H](CN1CCC(O)C1)CO2` (stereo in doubt) [Compound 37, 1-(7-Benzenesulfonyl-2,3-dihydro-benzo[1,4]dioxin-2-ylmethyl)-pyrrolidin-3-ol], the melting point is 94.7 to 96.4 °C. The same measure for `CNC[C@H]1COc2ccc(S(=O)(=O)c3cccc(C#N)c3)cc2O1` (stereo in doubt) [Compound 38, 3-(3-Methylaminomethyl-2,3-dihydro-benzo[1,4]dioxine-6-sulfonyl)-benzonitrile]: 190.6 to 192.1 °C; for `NC(=O)NC[C@H]1COc2ccc(S(=O)(=O)c3ccccc3)cc2O1` (stereo in doubt) [Compound 40, (7-Benzenesulfonyl-2,3-dihydro-benzo[1,4]dioxin-2-ylmethyl)-urea]: 104.9 to 105.7 °C. The same measure for `CNC[C@H]1COc2ccc(S(=O)(=O)c3ccccc3)cc2O1` [Compound 2, (7-Benzenesulfonyl-2,3-dihydro-benzo[1,4]dioxin-2--(S)-ylmethyl)-methyl-amine]: 240 to 243.6 °C. In turn, `CNC[C@@H]1COc2cc(S(=O)(=O)c3ccccc3)ccc2O1` [Compound 4, (6-Benzenesulfonyl-2,3-dihydro-benzo[1,4]dioxin-2-(R)-ylmethyl)-methyl-amine] had a melting point of 219.7 to 225.4 °C. Turning to `CNC[C@H]1COc2cc(S(=O)(=O)c3ccccc3)ccc2O1` [Compound 5, (6-Benzenesulfonyl-2,3-dihydro-benzo[1,4]dioxin-2-(S)-ylmethyl)-methyl-amine], the melting point was in the range of 218.2 to 220.5 °C. `CNC[C@@H]1COc2ccc(S(=O)(=O)c3cccc(F)c3)cc2O1` [Compound 8, [7-(3-Fluoro-benzenesulfonyl)-2,3-dihydro-benzo[1,4]dioxin-2-(R)-ylmethyl]-methyl-amine] gave a melting point of 250.1 to 254.3 °C. The same measure for `NC[C@H]1COc2ccc(S(=O)(=O)c3cccc(F)c3)cc2O1` [Compound 9, C-[7-(3-Fluoro-benzenesulfonyl)-2,3-dihydro-benzo[1,4]dioxin-2-(S)-yl]-methylamine]: 224.9 to 227.9 °C. Take `O=S(=O)(c1ccccc1)c1ccc2c(c1)O[C@H](CN1CCCC1)CO2` [Compound 10, 1-(7-Benzenesulfonyl-2,3-dihydro-benzol[1,4]dioxin-2-(R)-ylmethyl)-pyrrolidine]: the melting point was 75.8 to 112.7 °C.
